In PubChem BioAssay AID2060912 (Molecular Pharmacology Branch, DTP, NCI, 2025) one finds viability, T/C and IC50 data, which are given here for 17 molecules.

The test relates to HUVEC/MSC spheroids viability. Nature of the test: Human HUVEC/MSC cell line growth inhibition [KRAS2].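 On viability, T/C: percent of DMSO vehicle control luminescence so 100% = untreated viability.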 As to conditions: for viability, T/C: stronger effect = lower value. From the text:
Multicellular complex tumor spheroid response to RAS pathway inhibitors in combination with a targeted agents in patient-derived cell lines with oncogenic KRAS variants from multiple cancer types
A high-throughput screen of multi-cell type tumor spheroids was designed to identify active combinations of targeted small molecules and KRAS pathway inhibitors. Complex spheroids include a stromal component modeled by human endothelial cells (HUVEC) and fibroblasts modeled by human mesenchymal stem cells (MSCs). The concentration ranges selected for each drug and investigational agent were based upon clinically achievable concentrations if the clinical Cmax of the agent was known. * [This particular assayID is a followup dataset requested by reviewers of the manuscript. It is a test of the HUVEC and MSC without the tumor cells, and was conducted using different drug plates and a different plate layout.]
Compounds. The drugs and investigational agents: BI-3406 (NSC825286), BAY-293 (NSC824723), batoprotafib (TNO155; NSC825523), sotorasib (AMG 510; NSC818433), MRTX1257 (NSC819558), elimusertib (BAY 1895344; NSC800525), molibresib (GSK525762; NSC774829), temuterkib (LY3214996; NSC803410), venetoclax (NSC766270), alisertib (NSC759677), olaparib (NSC753686), talazoparib (NSC767125), erdafitinib (NSC781556), ipatasertib (NSC767898), cabozantinib (NSC761068), nintedanib (NSC756659), abemaciclib (NSC768073), docetaxel (NSC628503), trametinib (NSC758246), and sapanisertib (NSC764658) were obtained from the National Cancer Institute (NCI) Developmental Therapeutics Program Chemical Repository. The FDA-approved anticancer drug set is available from the Developmental Therapeutics Program. […] The stock solutions were prepared in dimethyl sulfoxide (DMSO, Sigma-Aldrich, St. Louis, MO, cat. D2650) at 800-fold the tested concentration and stored at -70 degrees C prior to their use. All drugs and investigational agents were tested over a range starting from a high concentration at or near the clinical Cmax and decreasing in half-log increments. If the clinical Cmax for an agent had not been determined, the highest concentration tested was 10 microM.
Cell Culture. All cells were maintained in an incubator at 37 degrees C and 5% CO2 with 95% humidity. The PDC lines were cultured according to standard operating procedures established by the NCI PDMR (https://pdmr.cancer.gov/sops/default.htm). Briefly, all PDCs were thawed and cultured in Matrigel-coated flasks prepared with a working solution of 1X Ham's F-12 nutrient mix, without supplementation (Invitrogen, Waltham, MA, cat. 11765054), 100 U/mL penicillin-streptomycin (Invitrogen, cat. 15140122), and 2.5% Matrigel (Corning Inc., Corning, NY, cat. 354248) for the first three passages. All PDCs were cultured in complete DMEM/F-12 media containing advanced DMEM/F-12 (Invitrogen, cat. 12634028), 4.9% defined fetal bovine serum, heat inactivated (HyClone Laboratories Inc., Logan, UT, cat. SH30070.03HI), 389 ng/mL hydrocortisone (Sigma-Aldrich, cat. H4001), 9.7 ng/mL human EGF recombinant protein (Invitrogen, cat. PHG0313), 23.4 microg/mL adenine (Sigma-Aldrich, cat. A2786), 97.3 U/mL penicillin-streptomycin (Invitrogen, cat. 15140122), 1.9 mM L-glutamine (Invitrogen, cat. 25030081), and 9.7 microM Y-27632 dihydrochloride (Tocris Bioscience, Bristol, United Kingdom, cat. 1254). The PDCs were cultured in complete DMEM/F12 media without 9.7 microM Y-27632 dihydrochloride for at least two passages prior to the screen. The established cell line HOP-62 was cultured in RPMI 1640 medium, HEPES (Invitrogen, cat. 22400105) with 10% defined fetal bovine serum (HyClone Laboratories Inc., cat. SH30070.03) and 2 mM L-glutamine (Invitrogen, cat. 25030081). The pooled donor HUVEC were cultured in endothelial cell growth medium 2 (PromoCell, Heidelberg, Germany, cat. C-22011) and the hMSC were cultured in mesenchymal stem cell growth medium 2 (PromoCell, cat. C-28009). […]

The mark [1] stands for this setting: compound alone, run of 05/05/2024.

Several values for one entry are separate records, joined by “and”; a condition that tells them apart may be missing. Equal values may be shown once.

On to `C=CC(=O)N1CCN(c2nc(=O)n(-c3c(C)ccnc3C(C)C)c3nc(-c4c(O)cccc4F)c(F)cc23)C(C)C1` (centres undefined), for which the viability, T/C (compound 0.0316 µM) is 99.5% [middle of 9 runs] and the viability, T/C (compound 10 µM) was 117% [middle of 9 runs]. Also, under setting [1], the IC50 is greater than 10000 nM.

Consider `C=CC(=O)N1CCN(c2nc(OCC3CCCN3C)nc3c2CCN(c2cccc4cccc(C)c24)C3)CC1CC#N` (centres undefined), for which the viability, T/C is 94.9% [middle of 9 runs] (compound 0.03 µM), 73.6% [middle of 9 runs] (compound 0.949 µM) and 80.8% [middle of 9 runs] (compound 3 µM). In addition, the IC50 under setting [1] was greater than 3000 nM.

`CC(=O)Nc1cccc(-n2c(=O)n(C3CC3)c(=O)c3c(Nc4ccc(I)cc4F)n(C)c(=O)c(C)c32)c1`: the viability, T/C runs as follows: (compound 94.9 pM) 110% [middle of 5 runs]; (compound 0.000949 µM) 118% [middle of 5 runs]; (compound 0.00949 µM) 71.8% [middle of 5 runs]; (compound 0.03 µM) 17.6% [middle of 5 runs]. Also, the IC50 (curve of compound) is 14.7 nM [middle of 5 runs].

`CC(=O)OC12COC1CC(O)C1(C)C(=O)C(O)C3=C(C)C(OC(=O)C(O)C(NC(=O)OC(C)(C)C)c4ccccc4)CC(O)(C(OC(=O)c4ccccc4)C21)C3(C)C` (centres undefined): the viability, T/C is, setting by setting: (compound 0.00949 µM) 45.1% [middle of 5 runs]; (compound 0.03 µM) 44.2% [middle of 5 runs]; (compound 0.0949 µM) 47.2% [middle of 5 runs]; (compound 0.3 µM) 47.1% [middle of 4 runs]; (compound 0.949 µM) 47.9% [middle of 5 runs]; (compound 3 µM) 58.1% [middle of 5 runs]. The IC50 (curve of compound) is less than 9.49 nM.

Take `CC(C)n1nc(-c2ccc3oc(N)nc3c2)c2c(N)ncnc21`: the viability, T/C is, setting by setting: (compound 0.001 µM) 68.3% [middle of 5 runs]; (compound 0.00316 µM) 51.2% [middle of 5 runs]; (compound 0.01 µM) 47.9% [middle of 5 runs]; (compound 0.0316 µM) 47.5% [middle of 5 runs]; (compound 0.1 µM) 43.9% [middle of 5 runs].

Regarding `CC1(C)CCC(CN2CCN(c3ccc(C(=O)NS(=O)(=O)c4ccc(NCC5CCOCC5)c([N+](=O)[O-])c4)c(Oc4cnc5[nH]ccc5c4)c3)CC2)=C(c2ccc(Cl)cc2)C1`, the viability, T/C was 90.6% [middle of 5 runs] (compound 0.0316 µM); 95.1% [middle of 5 runs] (compound 0.1 µM); 83% [middle of 5 runs] (compound 0.316 µM); 90.2% [middle of 5 runs] (compound 1 µM); 69% [middle of 5 runs] (compound 3.16 µM); 4.4% [middle of 5 runs] (compound 10 µM). The IC50 (curve of compound) is 4.56 µM [middle of 4 runs].

As for `CC1COCCN1c1cc(-c2ccnn2C)c2ccnc(-c3ccn[nH]3)c2n1` (centres undefined), the viability, T/C is 80.5% [middle of 5 runs] (compound 0.03 µM); 87.6% [middle of 5 runs] (compound 0.0949 µM); 73.6% [middle of 5 runs] (compound 0.3 µM); 56.7% [middle of 5 runs] (compound 0.949 µM); 47.6% [middle of 5 runs] (compound 3 µM). Besides, the IC50 (curve of compound) was > 3000 nM and 1950 nM and 2380 nM.

In the case of `CCN1CCN(Cc2ccc(Nc3ncc(F)c(-c4cc(F)c5nc(C)n(C(C)C)c5c4)n3)nc2)CC1`, the viability, T/C was 86.6% [middle of 5 runs] (compound 0.01 µM), 87.7% [middle of 5 runs] (compound 0.0316 µM), 83.9% [middle of 5 runs] (compound 0.1 µM) and 99.4% [middle of 5 runs] (compound 0.316 µM). The IC50 (curve of compound) was greater than 1000 nM.

`CCNC(=O)CC1N=C(c2ccc(Cl)cc2)c2cc(OC)ccc2-n2c(C)nnc21` (centres undefined): the viability, T/C by setting is: (compound 0.0316 µM) 87.2% [middle of 5 runs]; (compound 0.1 µM) 86.6% [middle of 5 runs]. Besides, the IC50 (curve of compound) is greater than 10000 nM.

Take `CN(C)C/C=C/C(=O)Nc1cc2c(Nc3ccc(F)c(Cl)c3)ncnc2cc1O[C@H]1CCOC1`: the viability, T/C (compound 0.000316 µM) is 99.9% [middle of 5 runs]; the viability, T/C (compound 0.001 µM) was 91% [middle of 5 runs]; the viability, T/C (compound 0.00316 µM) was 90.5% [middle of 5 runs]; the viability, T/C (compound 0.0316 µM) is 85.3% [middle of 5 runs]. Also, the IC50 (curve of compound) was greater than 100 nM.

Consider `CNCc1ccccc1-c1csc(C(C)Nc2nc(C)nc3cc(OC)c(OC)cc23)c1` (centres undefined), for which the viability, T/C by setting is: (compound 0.0316 µM) 88.4% [middle of 9 runs]; (compound 0.316 µM) 84.6% [middle of 9 runs]; (compound 10 µM) 0.41% [middle of 8 runs]. In addition, the IC50 under setting [1] was 5.29 µM [middle of 8 runs].

For `COc1cc(Nc2ncc3c(n2)-c2ccc(Cl)cc2C(c2c(F)cccc2OC)=NC3)ccc1C(=O)O`, the viability, T/C (compound 0.1 µM) was 90.3% [middle of 5 runs]; the viability, T/C (compound 0.316 µM) is 96% [middle of 5 runs]; the viability, T/C (compound 1 µM) is 94% [middle of 5 runs]; the viability, T/C (compound 3.16 µM) is 104% [middle of 5 runs]; the viability, T/C (compound 10 µM) is 61.2% [middle of 5 runs]. Further, the IC50 (curve of compound) was greater than 10000 nM.

Consider `COc1cc(OC)cc(N(CCNC(C)C)c2ccc3ncc(-c4cnn(C)c4)nc3c2)c1`, for which the viability, T/C reads like this: (compound 0.0316 µM) 60.9% [middle of 5 runs]; (compound 0.1 µM) 45.4% [middle of 5 runs]; (compound 0.316 µM) 38.2% [middle of 5 runs]; (compound 1 µM) 38.3% [middle of 5 runs]; (compound 3.16 µM) 41.8% [middle of 5 runs]; (compound 10 µM) 34.8% [middle of 5 runs]. For the same molecule, where the note is “curve of compound”, the IC50 was 66.1 nM [middle of 5 runs].

Consider `COc1cc2nc(C)nc(NC(C)c3cc(N)cc(C(F)(F)F)c3)c2cc1OC1CCOC1` (centres undefined), for which the viability, T/C is, setting by setting: (compound 0.0316 µM) 99.5% [middle of 9 runs]; (compound 0.316 µM) 97.3% [middle of 9 runs]; (compound 10 µM) 66.7% [middle of 9 runs]. Further, the IC50 under setting [1] was greater than 10000 nM.

`COc1cc2nccc(Oc3ccc(NC(=O)C4(C(=O)Nc5ccc(F)cc5)CC4)cc3)c2cc1OC`: the viability, T/C (compound 0.0316 µM) is 76.8% [middle of 5 runs]; the viability, T/C (compound 0.1 µM) was 79% [middle of 5 runs]; the viability, T/C (compound 0.316 µM) was 70.8% [middle of 5 runs]; the viability, T/C (compound 1 µM) is 71.4% [middle of 5 runs]; the viability, T/C (compound 10 µM) was 36% [middle of 5 runs]. Further, the IC50 (curve of compound) was 6.87 µM [middle of 5 runs].

Turning to `Cn1nccc1Nc1nccc(-c2cc3c(s2)C(C)(C)N(CCN2CCOCC2)C3=O)n1`, the viability, T/C was 91.1% [middle of 5 runs] (compound 0.0316 µM); 105% [middle of 5 runs] (compound 0.1 µM); 99.3% [middle of 5 runs] (compound 1 µM); 40.5% [middle of 5 runs] (compound 3.16 µM); 5.24% [middle of 5 runs] (compound 10 µM). Also, the IC50 (curve of compound) is 2.65 µM [middle of 5 runs].

For the molecule `Cn1ncnc1[C@H]1c2n[nH]c(=O)c3cc(F)cc(c23)N[C@@H]1c1ccc(F)cc1`, the viability, T/C (compound 0.001 µM) was 87.9% [middle of 5 runs]; the viability, T/C (compound 0.00316 µM) was 83.8% [middle of 5 runs]; the viability, T/C (compound 0.01 µM) is 90.7% [middle of 5 runs]; the viability, T/C (compound 0.0316 µM) is 88.1% [middle of 5 runs]; the viability, T/C (compound 0.1 µM) was 84.2% [middle of 5 runs]. Under “curve of compound”, the IC50 is greater than 100 nM.

Usually viability, T/C stands for the ratio of treated to control. In general, IC50 refers to the concentration that inhibits the measured activity by half.
